These results are taken from US20060111408A1, “Therapeutic benzothiazole compounds” (priority 2000, published 2006).

One experiment has as its target T1, human recombinant ERβ (Homo sapiens, UniProt Q92731).
T1 construct: purchased PanVera (Madison, Wis.)
In words: Fluorescence polarization estrogen receptor (ERFP) binding assay, ERβ. Particulars: for Ki: fluorescence polarization competition with Fluormone ES2, IC50 converted to Ki by Kenakin formula, read-out: FP β-ER Ki; for FP Selectivity: β-ER over α-ER, from FP Ki values. As for the experimental part:
(§1) Abbreviated Procedure for Fluorescence Polarization Estrogen Receptor (ERFP) Binding Assay
(§2) A homogeneous mix-and-measure estrogen receptor (ER) binding assay which utilizes fluorescence polarization (FP) technology is used to identify compounds with affinity for the estrogen receptor. Purchased from PanVera (Madison, Wis.), assay reagents include purified human recombinant ERα, human recombinant ERβ, ES2 screening buffer (100 mM potassium phosphate, pH 7.4, 100 μg/mL bovine gamma globulin), and Fluormone™ ES2.
(§3) For competition binding experiments, dilutions of test compounds are prepared at 2× the final assay concentration in 0.2% DMSO in ES2 Screening buffer on TECAN Genosys, and 25 μL compound/well is dispensed into black Costar ½ volume 96-well plates. […] Plates are gently shaken for at least 5 minutes to mix and incubated for at least 1 hr 45 minutes to achieve equilibrium. (Reaction mixtures are stable for up to 5 hours).
(§4) Polarized fluorescence intensity values are collected and subsequently converted electronically to millipolarization (mp) values. Following data reduction and normalization with Excel and/or Prism software, % Ctrl values at the various test concentrations are used to obtain IC50 values via non-linear regression analysis of a four-parameter logistic equation.
In general terms: Polarisation of emitted light reports the rotation of a fluorescent probe.

The target of another experiment is T2, αER (Homo sapiens, UniProt P03372).
T2 construct: expressed in transfected cells; host or cells: 293 cells (Human Embryonic Kidney, ATCC CRL-1573); the transfection step says 293T
T2 sequence (P03372 1-595): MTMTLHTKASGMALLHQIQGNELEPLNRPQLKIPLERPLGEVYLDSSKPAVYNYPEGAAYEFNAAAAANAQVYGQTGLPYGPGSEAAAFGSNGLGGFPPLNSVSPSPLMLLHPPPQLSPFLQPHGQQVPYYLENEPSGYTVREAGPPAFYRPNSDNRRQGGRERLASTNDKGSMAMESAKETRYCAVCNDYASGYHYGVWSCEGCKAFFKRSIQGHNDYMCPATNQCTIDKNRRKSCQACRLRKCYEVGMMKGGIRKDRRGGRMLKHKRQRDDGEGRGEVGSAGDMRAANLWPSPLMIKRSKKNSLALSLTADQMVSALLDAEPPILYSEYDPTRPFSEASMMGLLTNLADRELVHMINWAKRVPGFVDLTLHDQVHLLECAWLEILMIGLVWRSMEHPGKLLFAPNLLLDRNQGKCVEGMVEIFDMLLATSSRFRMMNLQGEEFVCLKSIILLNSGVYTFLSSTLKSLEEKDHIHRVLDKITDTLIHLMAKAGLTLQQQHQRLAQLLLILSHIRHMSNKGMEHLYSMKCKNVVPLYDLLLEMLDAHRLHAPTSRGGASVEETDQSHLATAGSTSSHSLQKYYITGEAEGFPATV
As to the kind of experiment: Cell-based assay for ER transcriptional activity (ERE β-gal reporter), αER-transfected 293 cells. To be noted: for EC50: 293 cells transfected with αER and ERE β-gal reporter, read-out: ERE α-ER EC50; for ERE α-ER Max: 293 cells transfected with αER, max controls 10 nM beta-estradiol. As for the experimental part:
(§5) Cell-based Assay for ER Transcriptional Activity:
(§6) ERs are ligand-dependent transcription factors that bind the promoter regions of genes at a consensus DNA sequence called the estrogen responsive element (ERE). The ER agonist or antagonist activity of a drug was determined by measuring the amount of reporter enzyme activity expressed from a plasmid under the control of an estrogen-responsive element when cells transiently transfected with ER and the reporter plasmid were exposed to drug. These experiments were conducted according to the following methods.
(§7) Cells are grown in DMEM supplemented with 10% FBS, glutamine, sodium pyruvate and penicillin/streptomycin. Cells are grown to 80% confluency and split 1:10 or 1:20.
(§8) 2. The next day the media is changed, 1 hour prior to transfection, to fresh phenol red-free DMEM 10% FBS (charcoal stripped) and supplements.
(§9) 3. Transfections are performed using the Profection Kit from Promega #El 200, this kit is based on calcium phosphate mediated transfection. Reagents are added in sterile polystyrene tubes in the following order:
(§10) 6. The day after transfection, cells are washed 2× with PBS Ca Mg freePBS containing 1 mM EGTA pH=7.6. […] Trypsin is neutralized with 6 ml DMEM (no phenol red)+10% charcoal stripped FBS. Cells are pelleted at 1000×g for 5 min. Cell pellet is resuspended in 10 ml DMEM (no phenol red)+2% charcoal stripped FBS supplemented with glutamine and Penn/Strep and the cells are counted. Additional medium is added to dilute the cell density to 500,000 cells/ml.
(§11) 7. […] Plates are incubated for approx. 2-4 hours to allow cells to attach.
(§12) 8. Compounds are prepared at concentration of 4 mM in 100% DMSO, then diluted into medium with supplements but no serum. The first 2 dilutions are done in medium with no DMSO, then the remaining dilutions are in medium plus 0.5% DMSO to keep the vehicle constant. Max controls are 10 nM beta-estradiol and background controls are 0.5% DMSO. Compounds are normally tested in the range of 10 uM to 1 nM and are prepared at twice the concentration to be tested. The compounds are added to the cell plates, 50 ul per well. All compounds are tested with an n=4 wells for single poke and n=2 for 9-pt curves.
(§13) 9. Cells are incubated overnight at 37° C. with the compounds.
(§14) 1. After 18-24 hr of stimulation, 100 ul of 7% CPRG cocktail is added to each well, the plate is incubated at 37C for approximately 30 minutes to 2 hours or until the OD reaches between 1.0 and 2.0.
(§15) 2. The plates are read on a spectrophotometric plate reader (Spectramax, Molecular Devices) at 570 nm and raw absorbances are obtained.
(§16) Data is compiled and interpreted with Excel using XLFit or GraphPad Prism to fit concentration-response curves.

Another experiment deals with T3, βER (Homo sapiens, UniProt Q92731).
T3 construct: expressed in transfected cells; host or cells: 293 cells (Human Embryonic Kidney, ATCC CRL-1573); the transfection step says 293T
T3 sequence (Q92731 54-530 limits assumed): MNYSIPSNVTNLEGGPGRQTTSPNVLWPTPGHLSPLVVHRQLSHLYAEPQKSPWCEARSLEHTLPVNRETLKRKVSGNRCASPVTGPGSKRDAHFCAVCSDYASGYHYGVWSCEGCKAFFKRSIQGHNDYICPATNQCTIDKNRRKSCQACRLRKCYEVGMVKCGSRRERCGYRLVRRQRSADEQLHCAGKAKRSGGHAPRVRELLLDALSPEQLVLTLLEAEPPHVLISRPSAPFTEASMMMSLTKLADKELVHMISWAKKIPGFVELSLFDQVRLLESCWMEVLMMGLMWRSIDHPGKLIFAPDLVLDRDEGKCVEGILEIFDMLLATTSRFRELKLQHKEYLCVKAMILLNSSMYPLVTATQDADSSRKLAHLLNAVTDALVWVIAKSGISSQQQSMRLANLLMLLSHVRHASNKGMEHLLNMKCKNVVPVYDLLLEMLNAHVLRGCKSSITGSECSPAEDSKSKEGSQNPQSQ
In words: Cell-based assay for ER transcriptional activity (ERE β-gal reporter), βER-transfected 293 cells. To be noted: for EC50: 293 cells transfected with βER and ERE β-gal reporter; for Emax: HEK293, 293 cells transfected with βER, max controls 10 nM beta-estradiol; for ERE Selectivity: β-ER over α-ER, from ERE EC50 values. As to the method: as §5, §6, §7, §8, §9, §10, §11, §12, §13, §14, §15, §16

For the next experiment, the target named is T4, human recombinant ERα (Homo sapiens, UniProt P03372).
T4 construct: purchased PanVera (Madison, Wis.)
T4 sequence (P03372 1-595): T2 sequence (P03372 1-595)
In words: Fluorescence polarization estrogen receptor (ERFP) binding assay, ERα. Particulars: fluorescence polarization competition with Fluormone ES2; IC50 converted to Ki by Kenakin formula; read-out: FP α-ER Ki. As for the experimental part:
as §1, §2
as §3, with “hours). After centrifugation to remove air bubbles, plates are read on an LJL Analyst or Acquest equipped with Criterion software at the following settings: Fluorescence Polarization Mode; Static Polarizer on Excitation Side; Dynamic Polarizer on Emission Side; Excitation λ=485+/−10 nm; Emission λ=520+/−12.5 nm.” for “hours).”
as §4
Reference: Bolger et al., Rapid Screening of Environmental Chemicals for Estrogen Receptor Binding Capacity, Environmental Health Pespectives: 106 (1998), 1-7.

By Ki is commonly meant a dissociation constant, usually derived from enzyme kinetics or from competition with a known ligand. By EC50 is commonly meant the concentration giving half of the maximal effect. Broadly, the Emax is the maximal effect, on the per cent scale that the assay sets.

T1 sequence (Q92731 whole entry): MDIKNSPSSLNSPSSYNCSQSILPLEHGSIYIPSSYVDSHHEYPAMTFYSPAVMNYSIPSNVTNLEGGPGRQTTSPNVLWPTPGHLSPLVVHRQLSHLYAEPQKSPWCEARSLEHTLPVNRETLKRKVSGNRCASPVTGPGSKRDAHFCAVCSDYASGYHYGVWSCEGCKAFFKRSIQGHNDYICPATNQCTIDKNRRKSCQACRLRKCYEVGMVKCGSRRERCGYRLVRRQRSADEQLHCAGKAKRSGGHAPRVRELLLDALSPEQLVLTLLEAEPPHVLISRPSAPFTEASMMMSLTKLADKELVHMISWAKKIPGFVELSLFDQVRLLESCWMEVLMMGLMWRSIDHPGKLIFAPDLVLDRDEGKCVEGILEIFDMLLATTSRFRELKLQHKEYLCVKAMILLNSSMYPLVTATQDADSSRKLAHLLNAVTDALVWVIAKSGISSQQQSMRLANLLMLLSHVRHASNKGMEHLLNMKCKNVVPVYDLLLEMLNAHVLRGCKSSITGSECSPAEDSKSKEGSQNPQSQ

With `Cc1cc(O)cc2oc(-c3ccc(O)cc3)nc12` [Example 3, 6-Hydroxy-2-(4-hydroxyphenyl)-4-methylbenzoxazole], on human recombinant ERβ, the Ki is 4.8 nM and the “FP Selectivity” value is on record as 25. Moreover, at αER, the EC50 was determined as 497 nM and the ERE α-ER Max turned out to be 102%. Also, on βER, the EC50 is 23 nM, the Emax was determined as 89% and the “ERE Selectivity” value is 22. In addition, at human recombinant ERα, the inhibition constant (Ki) amounted to 121 nM.
With `Oc1cc(Br)c2oc(-c3ccc(O)c(Cl)c3)nc2c1` [Example 12, 7-Bromo-2-(3-chloro-4-hydroxy-phenyl)-benzooxazol-5-ol], at human recombinant ERβ, the Ki stood at 1.8 nM and the “FP Selectivity” value is 30. In addition, on αER, the EC50 came out at 76 nM and the ERE α-ER Max is 37%. At βER, the EC50 turned out to be 0.5 nM, the Emax was 81% and the “ERE Selectivity” value stood at 153. At human recombinant ERα, the Ki stood at 54 nM.
`Oc1ccc(-c2nc3c(O)cc(O)cc3o2)cc1` [Example 5, 4,6-Dihydroxy-2-(4-hydroxyphenyl)benzoxazole]: on human recombinant ERβ, the inhibition constant Ki was 290 nM and the “FP Selectivity” value stood at 3. Moreover, the ERE α-ER Max on αER came to 102%. Also, on βER, the Emax amounted to 98% and the “ERE Selectivity” value stood at 1.8. Moreover, on human recombinant ERα, the Ki was 1000 nM.
For the compound `Oc1ccc(-c2nc3c(Cl)cc(O)cc3o2)cc1` [Example 1, 4-Chloro-6-hydroxy-2-(4-hydroxyphenyl)benzoxazole], on human recombinant ERβ, the Ki worked out at 1.7 nM and the “FP Selectivity” value came out at 10. Moreover, at αER, the EC50 is 61 nM and the ERE α-ER Max stood at 103%. Moreover, at βER, the concentration giving a half-maximal response (EC50) was determined as 1.2 nM, the Emax was 98% and the “ERE Selectivity” value amounted to 52. For the same compound, the Ki at human recombinant ERα was 18 nM.
For `COc1ccc2oc(-c3ccc(O)cc3)nc2c1` [Example 8, 2-(4-hydroxyphenyl)-5-methoxybenzoxazole], on human recombinant ERβ, the Ki was determined as 148 nM and the “FP Selectivity” value turned out to be 3. The inhibition constant (Ki) on human recombinant ERα was 477 nM.
